Here are results for 20 molecules from patent publication US20260217708A1, “FUSED BENZAZEPINE DERIVATIVES FOR USE IN THE TREATMENT OF CANCER AND EPILEPSY” (UCB BIOPHARMA SRL, priority 2023, published 2026).

Molecules are shown by their SMILES.

In experiment [1] the target is T1, system Xc^− (Homo sapiens, UniProt Q9UPY5).
T1 sequence (Q9UPY5 1-501): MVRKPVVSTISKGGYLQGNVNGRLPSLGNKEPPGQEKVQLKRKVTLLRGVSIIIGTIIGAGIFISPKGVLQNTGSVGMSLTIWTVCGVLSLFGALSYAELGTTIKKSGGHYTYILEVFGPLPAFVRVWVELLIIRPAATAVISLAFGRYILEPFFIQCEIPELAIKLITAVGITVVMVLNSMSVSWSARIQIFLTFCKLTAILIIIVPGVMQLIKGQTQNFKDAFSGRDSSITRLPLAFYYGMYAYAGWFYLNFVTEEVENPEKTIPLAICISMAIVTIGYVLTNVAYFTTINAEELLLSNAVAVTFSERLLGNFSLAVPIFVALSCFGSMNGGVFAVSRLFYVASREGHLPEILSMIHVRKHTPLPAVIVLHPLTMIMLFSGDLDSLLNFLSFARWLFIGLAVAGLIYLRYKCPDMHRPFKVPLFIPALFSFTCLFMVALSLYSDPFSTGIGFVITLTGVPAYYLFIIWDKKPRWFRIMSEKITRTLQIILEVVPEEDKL
T1 sequence (P08195 1-529 partner): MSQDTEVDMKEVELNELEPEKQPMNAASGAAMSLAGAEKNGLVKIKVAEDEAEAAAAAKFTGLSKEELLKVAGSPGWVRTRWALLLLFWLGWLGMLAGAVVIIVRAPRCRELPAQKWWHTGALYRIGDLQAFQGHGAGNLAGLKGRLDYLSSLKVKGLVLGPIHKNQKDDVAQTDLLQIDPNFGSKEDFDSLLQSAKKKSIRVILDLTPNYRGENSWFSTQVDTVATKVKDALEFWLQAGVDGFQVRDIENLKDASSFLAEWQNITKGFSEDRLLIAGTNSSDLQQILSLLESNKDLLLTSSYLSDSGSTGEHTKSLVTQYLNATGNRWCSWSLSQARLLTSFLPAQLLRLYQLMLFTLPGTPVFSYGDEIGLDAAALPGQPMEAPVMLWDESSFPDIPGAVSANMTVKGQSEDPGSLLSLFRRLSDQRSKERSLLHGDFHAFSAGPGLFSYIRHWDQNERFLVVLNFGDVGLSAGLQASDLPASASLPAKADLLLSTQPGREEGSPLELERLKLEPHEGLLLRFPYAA
As to the kind of experiment: Cystine-induced glutamate release assay. It counts as cell-based. Further details: endogenous in cells; host or cells: H4 cells. The conditions noted are these: H4 cells, sodium-free HEPES buffer, 50 μM L-Cystine, 2 hours, Amplex Red glutamate readout; read-out: pIC50 Cystine-induced glutamate release assay (converted). Summed up: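 IC50 (reported as pIC50) normalized to DMSO 1% and Erastin 50 μM controls, from Amplex Red fluorescence of glutamate exported into supernatant. H4 cells were washed into sodium-free buffer to exclude EAAT transport, then given compound with 50 μM L-cystine for 2 h in the incubator.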

The target in experiment [2] is T1, system Xc^−. As to the kind of experiment: [^14C]L-Cystine uptake assay. It counts as cell-based. The conditions noted are these: H4 cells, sodium-free HEPES buffer, 0.5 μM L-[14C]Cystine and 4.5 μM L-Cystine, 1 hour at 37° C.; read-out: pIC50 [^14C] L-Cystine uptake assay (converted). Further details: endogenous in cells; host or cells: H4 cells. The method, boiled down: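 Compound effect is given as pIC50, taken between controls of 1% DMSO and 50 μM Erastin. Human H4 cells were pretreated 15 min with compound in sodium-free buffer, then took up 0.5 μM [14C]cystine with 4.5 μM cold cystine for 1 hour at 37° C, read by scintillation proximity counting.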

In the case of `Cc1cc2c(c(=O)n1C)-c1sccc1C(C)C(=O)N2CC(=O)Nc1ccc(C(F)F)cc1` (stereo not shown) [#361, N-[4-(difluoromethyl)phenyl]-2-(7,12,13-trimethyl-8,14-dioxo-3-thia-9,13-diazatricyclo[8.4.0.0^2,6]tetradeca-1(10),2(6),4,11-tetraen-9-yl)acetamide], the IC50 at system Xc^− [1] is 15.8 to 39.8 nM; at system Xc^− [2], under 15.8 nM.

With `COc1cc2c(c(=O)n1C)-c1ccccc1C(C)C(=O)N2CC(=O)Nc1ccc(C(F)F)cc1` (stereo not shown) [#362, N-[4-(difluoromethyl)phenyl]-2-(3-methoxy-2,7-dimethyl-1,6-dioxo-7H-pyrido[4,3-d][3]benzazepin-5-yl)acetamide], the IC50 on system Xc^− [1] is 15.8 to 39.8 nM; at system Xc^− [2], under 15.8 nM.

As to `CC1C(=O)N(CC(=O)Nc2ccc(Cl)c(F)c2)c2cc(CO)c(=O)n(C)c2-c2ccccc21` (stereo not shown) [#363, N-(4-chloro-3-fluoro-phenyl)-2-[3-(hydroxymethyl)-1,7-dimethyl-2,6-dioxo-7H-pyrido[3,2-d][3]benzazepin-5-yl]acetamide], the figures for the IC50 on system Xc^− [1] and on system Xc^− [2] were 15.8 to 39.8 nM and 39.8 to 100 nM, respectively.

Regarding `CC1C(=O)N(CC(=O)Nc2ccc(Cl)c(F)c2)c2ccn(C(F)F)c(=O)c2-c2cccnc21` (stereo not shown) [#366, N-(4-chloro-3-fluoro-phenyl)-2-[4-(difluoromethyl)-10-methyl-3,9-dioxo-4,8,12-triazatricyclo[9.4.0.0^2,7]pentadeca-1(15),2(7),5,11,13-pentaen-8-yl]acetamide], the IC50 on system Xc^− [1] and at system Xc^− [2] was 39.8 to 100 nM each time.

Consider `Cc1cc(F)c2c(c1)N(CC(=O)Nc1ccc(C(F)F)cc1)C(=O)C(C)c1ncncc1-2` (stereo not shown) [#370, N-[4-(difluoromethyl)phenyl]-2-(11-fluoro-5,9-dimethyl-6-oxo-5H-pyrimido[4,5-d][1]benzazepin-7-yl)acetamide], for which the IC50 on system Xc^− [1] and at system Xc^− [2] was 39.8 to 100 nM in each case.

Take `Cc1cc2c(c(OCCO)n1)-c1cccnc1[C@@H](C)C(=O)N2CC(=O)Nc1ccc(C(F)F)cc1` [#374, N-[4-(difluoromethyl)phenyl]-2-[(10R)-3-(2-hydroxyethoxy)-5,10-dimethyl-9-oxo-4,8,12-triazatricyclo[9.4.0.0^2,7]pentadeca-1(11),2(7),3,5,12,14-hexaen-8-yl]acetamide]: the IC50 on system Xc^− [1] and on system Xc^− [2] was under 15.8 nM in each case.

For the molecule `CC1C(=O)N(CC(=O)Nc2ccc(Cl)c(F)c2)c2cc(OCCO)nc(F)c2-c2cccnc21` (stereo not shown) [#375, N-(4-chloro-3-fluoro-phenyl)-2-[3-fluoro-5-(2-hydroxyethoxy)-10-methyl-9-oxo-4,8,12-triazatricyclo[9.4.0.0^2,7]pentadeca-1(15),2,4,6,11,13-hexaen-8-yl]acetamide], the IC50 at system Xc^− [1] and on system Xc^− [2] was under 15.8 nM each time.

In the case of `CC1C(=O)N(CC(=O)Nc2ccc(Cl)c(F)c2)c2cc(F)nc(OCCO)c2-c2cccnc21` (stereo not shown) [#376, N-(4-chloro-3-fluoro-phenyl)-2-[5-fluoro-3-(2-hydroxyethoxy)-10-methyl-9-oxo-4.8,12-triazatricyclo[9.4.0.0^2,7]pentadeca-1(15),2,4,6,11,13-hexaen-8-yl]acetamide], the results for the IC50 on system Xc^− [1] and at system Xc^− [2] were 15.8 to 39.8 nM and 39.8 to 100 nM, respectively.

In the case of `CC1C(=O)N(CC(=O)Nc2ccc(C(F)F)cc2)c2cc(OC3CN(C)C3)nc(F)c2-c2cccnc21` (stereo not shown) [#378, N-[4-(difluoromethyl)phenyl]-2-[3-fluoro-10-methyl-5-(1-methylazetidin-3-yl)oxy-9-oxo-4,8,12-triazatricyclo[9.4.0.0^2,7]pentadeca-1(15),2,4,6,11,13-hexaen-8-yl]acetamide], the IC50 is 15.8 to 39.8 nM on system Xc^− [1] and 39.8 to 100 nM on system Xc^− [2].

Consider `Cc1cc2c(c(Cl)n1)-c1cccnc1C(O)C(=O)N2CC(=O)Nc1ccc(C(F)(F)F)cc1` (stereo not shown) [#379, 2-(3-chloro-10-hydroxy-5-methyl-9-oxo-4,8,12-triazatricyclo[9.4.0.0^2,7]pentadeca-1(15),2(7),3,5,11,13-hexaen-8-yl)-N-[4-(trifluoromethyl)phenyl]acetamide], for which the IC50 was 15.8 to 39.8 nM on system Xc^− [1] and under 15.8 nM at system Xc^− [2].

Take `CC1C(=O)N(CC(=O)Nc2ccc(C(F)F)cc2)c2cc(C#N)cc(Cl)c2-c2ccnn21` (stereo not shown) [#388, 2-(11-chloro-9-cyano-5-methyl-6-oxo-5H-pyrazolo[1,5-d][1,4]benzodiazepin-7-yl)-N-[4-(difluoromethyl)phenyl]acetamide]: the IC50 at system Xc^− [1] and on system Xc^− [2] was 15.8 to 39.8 nM throughout.

In the case of `COc1nc(C)cc2c1-c1ccccc1CC(=O)N2CC(=O)Nc1ccc(C(F)(F)F)cc1` [#390, 2-(1-methoxy-3-methyl-6-oxo-7H-pyrido[4,3-d][3]benzazepin-5-yl)-N-[4-(trifluoromethyl)phenyl]acetamide], the IC50 at system Xc^− [1] and on system Xc^− [2] was 15.8 to 39.8 nM throughout.

For the molecule `Cc1cc2c(c(F)n1)-c1cc(F)cnc1CC(=O)N2CC(=O)Nc1ccc(C(F)(F)F)cc1` [#391, 2-(3,14-difluoro-5-methyl-9-oxo-4,8,12-triazatricyclo[9.4.0.0^2,7]pentadeca-1(15),2(7),3,5,11,13-hexaen-8-yl)-N-[4-(trifluoromethyl)phenyl]acetamide], the IC50 at system Xc^− [1] is 100 to 501 nM; on system Xc^− [2], 15.8 to 39.8 nM.

As to `Cc1cc2c(c(C#N)n1)-c1ncccc1CC(=O)N2CC(=O)Nc1ccc(C(F)(F)F)cc1` [#392, 2-(15-cyano-13-methyl-9-oxo-3,10,14-triazatricyclo[9.4.0.0^2,7]pentadeca-1(11),2,4,6,12,14-hexaen-10-yl)-N-[4-(trifluoromethyl)phenyl]acetamide], the IC50 on system Xc^− [1] is 39.8 to 100 nM; at system Xc^− [2], 15.8 to 39.8 nM.

On to `COc1ccc2c(c1)C(C)C(=O)N(CC(=O)Nc1ccc(C(F)(F)F)cc1)c1cc(C)nc(Cl)c1-2` (stereo not shown) [#393, 2-(1-chloro-9-methoxy-3,7-dimethyl-6-oxo-7H-pyrido[3,4-a][3]benzazepin-5-yl)-N-[4-(trifluoromethyl)phenyl]acetamide], for which the IC50 was 39.8 to 100 nM at system Xc^− [1] and 15.8 to 39.8 nM on system Xc^− [2].

Turning to `CC1C(=O)N(CC(=O)Nc2ccc(C(F)F)cc2)c2cc(Cl)nc(Cl)c2-c2cccnc21` (stereo not shown) [#395, 2-(3,5-dichloro-10-methyl-9-oxo-4,8,12-triazatricyclo[9.4.0.0^2,7]pentadeca-1(11),2(7),3,5,12,14-hexaen-8-yl)-N-[4-(difluoromethyl)phenyl]acetamide], the IC50 was 15.8 to 39.8 nM on system Xc^− [1] and 39.8 to 100 nM on system Xc^− [2].

Consider `COc1nc2c(cc1CO)N(CC(=O)Nc1ccc(Cl)c(F)c1)C(=O)C(C)c1ccccc1-2` (stereo not shown) [#399, N-(4-chloro-3-fluoro-phenyl)-2-[3-(hydroxymethyl)-2-methoxy-7-methyl-6-oxo-7H-pyrido[3,2-d][3]benzazepin-5-yl]acetamide], for which the IC50 at system Xc^− [1] is 39.8 to 100 nM; on system Xc^− [2] it was 15.8 to 39.8 nM.

On to `COc1ncc(F)c2c1-c1ccccc1C(C)C(=O)N2CC(=O)Nc1ccc(Cl)c(F)c1` (stereo not shown) [#400, N-(4-chloro-3-fluoro-phenyl)-2-(4-fluoro-1-methoxy-7-methyl-6-oxo-7H-pyrido[4,3-d][3]benzazepin-5-yl)acetamide], for which the IC50 on system Xc^− [1] is 39.8 to 100 nM; at system Xc^− [2], 100 to 501 nM.

As for `Cc1cc2c(c(F)n1)-c1ccccc1C(C)C(=O)N2CC(=O)Nc1ccc(Cl)c(F)c1` (stereo not shown) [#402, N-(4-chloro-3-fluoro-phenyl)-2-(1-fluoro-3,7-dimethyl-6-oxo-7H-pyrido[3,4-a][3]benzazepin-5-yl)acetamide], the IC50 on system Xc^− [1] and at system Xc^− [2] was under 15.8 nM in each case.

`Cc1cc2c(c(F)n1)-c1ccc(F)cc1C(C)C(=O)N2CC(=O)Nc1ccc(Cl)c(F)c1` (stereo not shown) [#404, N-(4-chloro-3-fluoro-phenyl)-2-(1,9-difluoro-3,7-dimethyl-6-oxo-7H-pyrido[3,4-a][3]benzazepin-5-yl)acetamide]: the IC50 on system Xc^− [1] is 15.8 to 39.8 nM; at system Xc^− [2], 39.8 to 100 nM.
